From patent US6624149B2, “Method for nucleic acid transfection of cells” (Genteric, Inc., priority 2000, dated 2003)

What was measured:
Type in all cases: in vivo
rat pancreas = assay: Intraductal transfection of rat pancreas, luciferase assay; details: 64 μg pCMV.FOX.Luc-2 in 100 μL into bile duct, 48 hours, four trials; ZnCl2 absent or 1.8 mM
Method: Male Sprague-Dawley rats (weighing 260-280 g) were fasted the night prior to treatment. Care was taken to ensure that this procedure was conducted under sterile conditions. After anesthesia (see above) and laparotomy, the distal end of the bile duct (at the level of the duodenum) was ligated, the proximal end of the pancreas (at the porta hepatis level) was temporary blocked by a ligature, a PE-10 tubing was inserted through an incision of the bile duct near the duodenum. 0.1 ml of the selected nucleic acid/transition metal enhancer mixture was injected in a retrograde manner into the duct. Successful injection was confirmed by visible swelling of the gland. For administration to the liver, the proximal portion of the bile duct (prior to its entry into pancreatic tissue) was injected. After DNA delivery, a by-pass operation was done by directly introducing the bile flow to duodenum through the exterior end of the PE-10 tubing. After carefully ensuring the ligatures were secure, 1 ml of ampicillin (15 mg/ml) was injected into the peritoneal cavity and the incision was closed in one layer, combining fascia and skin with 3-0 silk suture. The closed incision was washed with dilute ethanol and the animal was monitored under a heat lamp until it was fully awake and ambulatory. The […] were terminated 48 hours after treatment. […]

mouse lung = assay: Intra-tracheal transfection of mouse lung, luciferase assay; details: 3.6 mM zinc chloride
Method: Male BALB/c mice (specific pathogen free, Charles River Laboratories; 20-21 g) were used in the transfection experiments. Anesthesia was provided for all invasive procedures; animals were terminated by intraperitoneal administration of pentobarbital according to standard protocols. Neck dissections were performed on anesthetized mice using a one centimeter incision through the skin of the anterior neck. […] For comparison, a free nucleic acid solution (150 μl containing 512 μg of DNA) was prepared in sterile water and delivered in a similar manner. After injection, the point of incision was repaired using staples. The mice were terminated within 48 hours after treatment. […] An experiment was conducted to determine if transition metals promote in vivo transfection of the mouse lung. […] The final zinc chloride concentration of this mixture was 3.6 mM. […] For comparison, 150 μl of a DNA solution (354 μg DNA) was also administered to intratracheally to the lungs of four mice. At 48 hours post administration, the tracheal/lung block was dissected and assayed for luciferase specific activity as described above.

[1] = tested on: rat salivary gland (submandibular gland); assay: Intraductal transfection of rat salivary gland with pCMV.FOX.Luc-2, luciferase assay; details: 48 hours
Method: Nucleic acid/transition metal enhancer mixtures were prepared by sequentially adding deionized water or a buffered solution, DNA, and a desired transition metal enhancer to a polystyrene tube with mixing. “Free” (i.e., “Naked”) DNA controls were prepared by sequentially adding DNA to water or a buffered solution
Male Sprague-Dawley rats (260-280 g) were fasted the night prior to treatment. After administration of the anesthesia (see Section 6.1.3), both right and left salivary gland ducts (specifically, Wharton's duct) were cannulated with fine polyurethane tubing (i.d. 0.005″) and cemented into the desired location. Atropine was then administered subcutaneously (0.5 mg/kg) and, after eight minutes, 50 μl of the nucleic acid/transition metal enhancer mixture was injected, infused, instilled or administered at the ductal orifice or directly into the duct at any point along its length. See Goldfine, Nature Biotechnology 15:1378, 1997.
Regardless of whether a liposome/transition metal/nucleic acid mixture or a nucleic acid/transition metal enhancer mixture was delivered, the tubing and mixture was kept in place for ten additional minutes after application of the mixture prior to removal. At 48 hours post atropine administration, the rats were anesthetized by intraperitoneal injection of pentobarbital (50 mg/kg). The right and left submandibular glands were surgically removed, and the tissues were assayed for any observable reporter gene (luciferase of hGH) expression using the methods described below.
The presently claimed invention describes a new method using a combination of a transition metal enhancer and a nucleic acid of interest for gene delivery. The present invention provides a method which may enhance gene expression by improving the efficiency of gene delivery. This change in gene expression can be quantitated using various assays, such as the luciferase assay. de Wet et al., Molec. Cell Biol. 7:725, 1987. In various experiments described herein, the right and left submandibular glands were removed from the male Sprague-Dawley rats at 48 hours post administration of the pCMV.FOX.Luc-2 containing solution. In additional experiments other organs, such as the rat lungs, were used.
In experiments in which submandibular glands were tested, the amount of luciferase present in the right and left submandibular gland of each male Sprague-Dawley rat was measured independently and treated as separate, individual experiments (e.g., trials) because the amount of luciferase expressed by one submandibular gland is independent of the amount of luciferase expressed in the other submandibular gland. Therefore, each submandibular gland was independently lysed in lysis buffer (1.0 ml buffer per 0.1 g tissue) to create a lysis homogenate. The lysis buffer contained 100 mM K2PO4 pH 7.0, 1 mM dithiothreitol, and 1% Triton X-100. A 100 μl aliquot of lysis homogenate from each submandibular gland was analyzed for luciferase activity (de Wet et al., Molec. Cell Biol. 7:725, 1987) using a Monolight 2010 luminometer (Analytical Luminescence Laboratories). Accordingly, luciferase light emissions from each aliquot of the lysis homogenate were measured over a ten second period.
Activity was expressed as relative light units, values collectively representing the assay conditions, luciferase concentration, luminometer photomultiplier tube sensitivity and background. Using well known techniques, the luciferase light units may be converted, for example, to picograms of luciferase protein. See, e.g., Felgner et al., U.S. Pat. No. 5,580,899 at Example 13. All experiments were performed in duplicate. In experiments using submandibular glands, data from each individual submandibular gland lysis homogenate is reported as a single trial.

SMILES: [Cl-].[Cl-].[Zn+2] [ZnCl2, zinc chloride]
- average luciferase activity (rat pancreas): 22028 relative luciferase light units per 10 mg of pancreatic tissue
- Improvement of transfection activity relative to the "free" DNA solution (mouse lung): 5 fold
- Average relative light units ([1]; Table 2, metal chloride 0.9 mM, 32 μg DNA in 50 μl, eight glands): 63842 relative light units
- Average relative light units ([1]; Table 3, metal chloride 0.9 mM, 32 μg DNA in 50 μl, Tris-HCl/EDTA, eight glands): 5685 relative light units
- Average relative light units ([1]; Table 6, zinc 3.6 mM, 128 μg DNA in 50 μl): 243362 relative light units
- Average relative light units ([1]; Table 7, ZnCl2 3.6 mM, pH 5.5, 128 μg DNA in 50 μl): 252446 relative light units
- Average relative light units ([1]; Table 7, ZnCl2 3.6 mM, pH 6.5, 128 μg DNA in 50 μl): 196002 relative light units
- Average relative light units ([1]; Table 7, ZnCl2 3.6 mM, pH 7.5, 128 μg DNA in 50 μl): 260340 relative light units
- Average relative light units ([1]; Table 7, ZnCl2 3.6 mM, pH 8.5, 128 μg DNA in 50 μl): 277958 relative light units
